Experimental findings from ChEMBL document CHEMBL1148279, “Effects of bisphosphonates on the growth of Entamoeba histolytica and Plasmodium species in vitro and in vivo” (J Med Chem, 2004) are described below.

Data set [1] is described as follows: in vitro. The following applies: human, KB cells (nasopharyngeal carcinoma).
Description: Toxicity evaluated against human nasopharyngeal carcinoma KB cell line
The test system of data set [2] is Plasmodium falciparum. Briefly: microbe, parasite or virus in culture.
Description: In vitro growth inhibition against Plasmodium falciparum
Data set [3] relates to Entamoeba histolytica. Kind of data set: In vitro growth inhibition against Entamoeba histolytica. It counts as functional, organism-based.

The CC50 is the concentration at which the toxic effect on the cells reaches its halfway point. A high value points to better tolerance by the cells. By IC50 is commonly meant the concentration that gives 50% inhibition. A high value points to a need for much substance.

In data set [1], `O=P(O)(O)C(Nc1ccccn1)P(=O)(O)O` displayed a CC50 of 465 µM. Further, the IC50 in data set [2] and in data set [3] was more than 200 µM each time.

Regarding `O=P(O)(O)C(O)(CCc1cccnc1)P(=O)(O)O`, in data set [1], the CC50 was more than 804 µM. This molecule returned an IC50 in data set [3] of more than 200 µM.

Molecule `O=P(O)(O)C(CNc1ccncc1)P(=O)(O)O` gave a CC50 in data set [1] of 386 µM. The IC50 in data set [2] and in data set [3] was more than 200 µM each time.

`O=P(O)(O)C(CNc1ccccn1)P(=O)(O)O` had a CC50 in data set [1] of 144 µM. For the same molecule, the IC50 in data set [2] was 17 µM; in data set [3], more than 200 µM.

The molecule `CCCCCCCC(O)(P(=O)(O)O)P(=O)(O)O` yielded a CC50 in data set [1] of 308 µM. Besides, the IC50 was determined as 26.7 µM in data set [2] and 22.3 µM in data set [3].

As to `NCCCCC(O)(P(=O)(O)O)P(=O)(O)O`, in data set [1], the midpoint of cytotoxicity, the CC50, lay at 91 µM. The molecule further yielded an IC50 in data set [3] of more than 200 µM.

In turn, `O=P(O)(O)C(O)(Cc1c[nH]cn1)P(=O)(O)O` returned a CC50 in data set [1] of 41 µM. This molecule also yielded an IC50 in data set [3] of more than 200 µM.

Consider `CCOP(=O)(OCC)C(Nc1ncccc1C)P(=O)(OCC)OCC`, for which, in data set [1], the CC50 is more than 790 µM. In addition, the IC50 in data set [3] was more than 200 µM.

In turn, `O=P(O)(O)C(Nc1cccnc1Cl)P(=O)(O)O` gave a CC50 in data set [1] of more than 963 µM. Moreover, the IC50 in data set [2] and in data set [3] was more than 200 µM throughout.

Consider `O=P(O)(O)C(Nc1nc2ccccc2s1)P(=O)(O)O`, for which, in data set [1], the CC50 is less than 0.93 µM. The IC50 in data set [2] is more than 200 µM.

In turn, `CCOP(=O)(OCC)C(Nc1cc(C)ccn1)P(=O)(OCC)OCC` came in with a CC50 in data set [1] of 127 µM. Also, the IC50 in data set [2] and in data set [3] was more than 200 µM each time.

Turning to `O=P(O)(O)CC(c1cccnc1)P(=O)(O)O` (stereo not given), it took 1020 µM to reach half-maximal cytotoxicity in data set [1] (CC50). In addition, the IC50 in data set [2] and in data set [3] was more than 200 µM throughout.

As for `Nc1ccc(CC(O)(P(=O)(O)O)P(=O)(O)O)cc1`, the IC50 in data set [3] is more than 200 µM.

Turning to `CCn1c2ccccc2c2ccc(NC(P(=O)(O)O)P(=O)(O)O)cc21`, in data set [1], the CC50 came to 710 µM. The IC50 was 104 µM in data set [2] and more than 200 µM in data set [3].

In data set [1], `CCCCCCCc1ccc(NC(P(=O)(O)O)P(=O)(O)O)cc1` came in with a CC50 of 211 µM. The IC50 in data set [3] was found to be 36.2 µM.

As to `O=P(O)(O)C(O)(Cc1ccccn1)P(=O)(O)O`, the IC50 in data set [3] is more than 200 µM.

As for `CCCC(O)(P(=O)(O)O)P(=O)(O)O`, in data set [1], the CC50 is more than 967 µM. The same molecule registered an IC50 in data set [3] of more than 200 µM.

Turning to `O=P(O)(O)CC(c1ccncc1)P(=O)(O)O` (stereo not given), in data set [1], the half-maximal cytotoxic concentration (CC50) was more than 1120 µM. Besides, the IC50 in data set [2] and in data set [3] was more than 200 µM throughout.

In turn, `O=P(O)(O)CC(c1ccccn1)P(=O)(O)O` (stereo not given) came in with a CC50 in data set [1] of less than 1.1 µM. Further, the IC50 in data set [2] and in data set [3] was more than 200 µM in each case.

The molecule `Cc1cccnc1NC(P(=O)(O)O)P(=O)(O)O` yielded an IC50 in data set [3] of more than 200 µM.

In data set [1], `CC(N)CC(O)(P(=O)(O)O)P(=O)(O)O` (stereo not given) gave a CC50 of more than 977 µM. Further, the IC50 in data set [3] was more than 200 µM.

Regarding `Cc1ccnc(NC(P(=O)(O)O)P(=O)(O)O)c1`, the IC50 in data set [2] and in data set [3] was more than 200 µM throughout.

`O=P(O)(O)C(Nc1c(F)c(F)c(F)c(F)c1F)P(=O)(O)O` had a CC50 in data set [1] of more than 779 µM. In addition, the IC50 in data set [2] and in data set [3] was more than 200 µM in each case.

In turn, `O=P(O)(O)C(O)(Cc1ccncc1)P(=O)(O)O` had a CC50 in data set [1] of 171 µM. Moreover, the IC50 in data set [3] was more than 200 µM.

The molecule `O=P(O)(O)C(Nc1ccc2c(c1)CCC2)P(=O)(O)O` had a CC50 in data set [1] of more than 976 µM. Further, the half-inhibitory concentration (IC50) in data set [2] and in data set [3] was more than 200 µM throughout.

The molecule `O=P(O)(O)C(NC1CCCCC1)P(=O)(O)O` [(CYCLOHEXYLAMINO)METHYLENEDIPHOSPHONIC ACID] registered an IC50 in data set [2] of more than 200 µM.

`NCCCC(O)(P(=O)(O)O)P(=O)(O)O` [ALENDRONIC ACID]: the IC50 in data set [3] was more than 200 µM.

In the case of `Cc1ncc([N+](=O)[O-])n1CCO` [METRONIDAZOLE], inhibition in data set [3] was half-maximal at 3.2 µM (IC50).

`NCCCCCC(O)(P(=O)(O)O)P(=O)(O)O` [NERIDRONIC ACID] showed an IC50 in data set [3] of more than 200 µM.

In data set [1], `CN(C)CCC(O)(P(=O)(O)O)P(=O)(O)O` [OLPADRONIC ACID] had a CC50 of more than 1050 µM. The IC50 in data set [3] was more than 200 µM.
